Assay [1] has as its target T1, EGFR (L858R T790M C797S) (Homo sapiens, UniProt P00533, C797S/L858R/T790M).
T1 construct: purchased SignalChem E10-122VG
Description: Biochemical EGFR inhibition assay (Caliper mobility shift), EGFR LRTMCS mutant. The settings on record: LRTMCS (PH) IC50 (nM) @ 1 mM ATP (Num). The essentials:
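Kinase reactions proceed at 25° C. to 10%–20% conversion of total peptide, are terminated with 35 mM EDTA, and the phosphopeptide is resolved from substrate by electrophoretic mobility shift. Apparent IC50 values come from plotting percent activity against log compound concentration.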

In assay [2] the target is T2, EGFR L858R T790M in NCI-H1975 cell line (Homo sapiens, UniProt P00533, L858R/T790M).
T2 construct: host or cells: NCI-H1975
T2 sequence (P00533 25-1210 T790M/L858R): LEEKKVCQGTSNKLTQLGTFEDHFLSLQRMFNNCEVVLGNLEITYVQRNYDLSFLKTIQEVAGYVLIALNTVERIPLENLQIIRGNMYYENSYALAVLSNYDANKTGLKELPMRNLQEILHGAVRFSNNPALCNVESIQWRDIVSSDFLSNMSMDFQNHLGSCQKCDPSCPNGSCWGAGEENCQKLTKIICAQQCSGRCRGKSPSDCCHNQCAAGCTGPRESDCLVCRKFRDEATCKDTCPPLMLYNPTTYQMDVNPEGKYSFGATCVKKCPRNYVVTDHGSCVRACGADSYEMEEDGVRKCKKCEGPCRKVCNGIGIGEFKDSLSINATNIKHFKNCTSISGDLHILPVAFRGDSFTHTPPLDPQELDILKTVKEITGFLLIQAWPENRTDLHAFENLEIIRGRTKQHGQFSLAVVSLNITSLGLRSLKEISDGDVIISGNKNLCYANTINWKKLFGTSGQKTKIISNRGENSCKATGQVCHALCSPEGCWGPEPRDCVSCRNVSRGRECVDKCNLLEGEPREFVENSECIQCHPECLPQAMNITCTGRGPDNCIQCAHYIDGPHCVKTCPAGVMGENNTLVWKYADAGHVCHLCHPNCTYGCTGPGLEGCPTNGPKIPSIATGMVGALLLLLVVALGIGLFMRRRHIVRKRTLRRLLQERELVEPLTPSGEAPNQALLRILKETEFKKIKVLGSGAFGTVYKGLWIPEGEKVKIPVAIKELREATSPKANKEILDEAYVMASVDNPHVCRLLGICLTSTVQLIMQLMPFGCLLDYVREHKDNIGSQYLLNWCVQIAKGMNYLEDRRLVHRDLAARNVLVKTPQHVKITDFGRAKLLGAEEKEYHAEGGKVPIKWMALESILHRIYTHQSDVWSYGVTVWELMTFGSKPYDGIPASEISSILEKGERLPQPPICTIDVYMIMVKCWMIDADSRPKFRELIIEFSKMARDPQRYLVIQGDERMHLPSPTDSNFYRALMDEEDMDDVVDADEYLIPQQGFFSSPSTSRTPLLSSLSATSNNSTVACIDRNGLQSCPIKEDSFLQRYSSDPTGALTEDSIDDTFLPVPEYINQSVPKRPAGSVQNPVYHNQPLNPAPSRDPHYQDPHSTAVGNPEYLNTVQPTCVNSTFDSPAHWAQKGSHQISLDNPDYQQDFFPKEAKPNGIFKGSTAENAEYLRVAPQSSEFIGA
Description: NCI-H1975 pEGFR AlphaLISA assay. It counts as cell-based. Conditions: NCI-H1975 cells (EGFR L858R T790M), p-EGFR (Tyr1068), 4-5 hours incubation; read-out: Ext pEGFR H1975 GMean IC50 (nM) Protocol: @Pharmaron AlphaLISA (Num). The essentials: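 Phospho-EGFR measured by AlphaLISA after overnight donor-bead incubation; IC50 from percent pEGFR inhibition versus log concentration.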

Structures are written as SMILES.

T1 sequence (P00533 25-1210 T790M/C797S/L858R): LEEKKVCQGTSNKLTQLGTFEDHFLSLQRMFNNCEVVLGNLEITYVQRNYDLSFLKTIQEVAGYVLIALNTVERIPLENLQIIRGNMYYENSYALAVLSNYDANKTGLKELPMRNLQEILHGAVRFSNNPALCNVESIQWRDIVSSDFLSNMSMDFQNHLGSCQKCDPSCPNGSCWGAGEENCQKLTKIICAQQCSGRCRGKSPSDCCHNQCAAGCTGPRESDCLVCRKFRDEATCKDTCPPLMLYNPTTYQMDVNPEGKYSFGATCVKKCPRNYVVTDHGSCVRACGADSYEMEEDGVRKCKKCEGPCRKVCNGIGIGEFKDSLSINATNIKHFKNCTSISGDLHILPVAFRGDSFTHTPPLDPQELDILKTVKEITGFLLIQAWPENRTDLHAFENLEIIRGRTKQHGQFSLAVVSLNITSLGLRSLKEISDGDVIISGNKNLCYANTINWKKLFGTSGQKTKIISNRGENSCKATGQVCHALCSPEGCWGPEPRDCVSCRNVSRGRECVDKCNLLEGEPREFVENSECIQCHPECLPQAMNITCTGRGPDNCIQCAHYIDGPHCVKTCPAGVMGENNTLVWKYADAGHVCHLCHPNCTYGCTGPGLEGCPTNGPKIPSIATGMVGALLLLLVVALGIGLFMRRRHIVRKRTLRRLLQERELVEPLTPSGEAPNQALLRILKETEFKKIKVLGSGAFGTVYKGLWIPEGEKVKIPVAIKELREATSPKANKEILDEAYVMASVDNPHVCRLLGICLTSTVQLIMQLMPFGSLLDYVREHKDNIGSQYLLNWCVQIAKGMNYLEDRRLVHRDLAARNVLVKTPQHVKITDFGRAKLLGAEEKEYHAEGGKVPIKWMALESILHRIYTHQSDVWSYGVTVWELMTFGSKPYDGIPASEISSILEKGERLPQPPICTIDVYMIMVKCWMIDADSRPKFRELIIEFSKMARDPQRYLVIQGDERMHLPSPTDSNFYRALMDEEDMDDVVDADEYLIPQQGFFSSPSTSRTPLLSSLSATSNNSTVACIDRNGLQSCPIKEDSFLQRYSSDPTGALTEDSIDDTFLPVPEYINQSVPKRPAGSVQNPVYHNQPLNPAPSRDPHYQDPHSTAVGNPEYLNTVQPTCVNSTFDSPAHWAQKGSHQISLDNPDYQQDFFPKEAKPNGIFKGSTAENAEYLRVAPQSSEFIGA

On to `CNC(=O)c1ncc(C(C)C)c2cc(Nc3ccnc(N4CC[C@@H](O)[C@@](C)(F)C4)n3)ncc12` [Example 64, 6-((2-((3S,4R)-3-fluoro-4-hydroxy-3-methylpiperidin-1-yl)pyrimidin-4-yl)amino)-4-isopropyl-N-methyl-2,7-naphthyridine-1-carboxamide], for which the 50% inhibitory concentration (IC50) is 15 to 20 nM in assay [1] and over 50 nM in assay [2].
`CCNC(=O)c1ncc(C(C)C)c2cc(Nc3ccnc(N4CC[C@@H](O)[C@@](C)(F)C4)n3)ncc12` [Example 65, N-ethyl-6-((2-((3S,4R)-3-fluoro-4-hydroxy-3-methylpiperidin-1-yl)pyrimidin-4-yl)amino)-4-isopropyl-2,7-naphthyridine-1-carboxamide]: the results for the IC50 in assay [1] and in assay [2] were 15 to 20 nM and over 50 nM, respectively.
`COCCNC(=O)c1ncc(C(C)C)c2cc(Nc3ccnc(N4CC[C@@H](O)[C@@](C)(F)C4)n3)ncc12` [Example 66, 6-((2-((3S,4R)-3-fluoro-4-hydroxy-3-methylpiperidin-1-yl)pyrimidin-4-yl)amino)-4-isopropyl-N-(2-methoxyethyl)-2,7-naphthyridine-1-carboxamide]: the IC50 in assay [1] is 20 to 30 nM; in assay [2], over 50 nM.
On the same counts, the results for `CC(C)c1cnc(C(=O)NCC(F)F)c2cnc(Nc3ccnc(N4CC[C@@H](O)[C@@](C)(F)C4)n3)cc12` [Example 67, N-(2,2-difluoroethyl)-6-((2-((3S,4R)-3-fluoro-4-hydroxy-3-methylpiperidin-1-yl)pyrimidin-4-yl)amino)-4-isopropyl-2,7-naphthyridine-1-carboxamide] are under 15 nM and over 50 nM.
For the compound `CC(C)c1cnc(C(=O)NC2CC2)c2cnc(Nc3ccnc(N4CC[C@@H](O)[C@@](C)(F)C4)n3)cc12` [Example 68, N-cyclopropyl-6-((2-((3S,4R)-3-fluoro-4-hydroxy-3-methylpiperidin-1-yl)pyrimidin-4-yl)amino)-4-isopropyl-2,7-naphthyridine-1-carboxamide], the IC50 in assay [1] is 15 to 20 nM; in assay [2] it was over 50 nM.
In the case of `CC(C)NC(=O)c1ncc(C(C)C)c2cc(Nc3ccnc(N4CC[C@@H](O)[C@@](C)(F)C4)n3)ncc12` [Example 69, 6-((2-((3S,4R)-3-fluoro-4-hydroxy-3-methylpiperidin-1-yl)pyrimidin-4-yl)amino)-N,4-diisopropyl-2,7-naphthyridine-1-carboxamide], the IC50 is 20 to 30 nM in assay [1] and over 50 nM in assay [2].
Consider `CC(C)c1cnc(C(=O)NCC(C)(C)O)c2cnc(Nc3ccnc(N4CC[C@@H](O)[C@@](C)(F)C4)n3)cc12` [Example 70, 6-((2-((3S,4R)-3-fluoro-4-hydroxy-3-methylpiperidin-1-yl)pyrimidin-4-yl)amino)-N-(2-hydroxy-2-methylpropyl)-4-isopropyl-2,7-naphthyridine-1-carboxamide], for which the IC50 in assay [1] was 30 to 100 nM; in assay [2], over 50 nM.
As for `CC(C)c1cnc(C(=O)N[C@H](C)CF)c2cnc(Nc3ccnc(N4CC[C@@H](O)[C@@](C)(F)C4)n3)cc12` [Example 71, 6-((2-((3S,4R)-3-fluoro-4-hydroxy-3-methylpiperidin-1-yl)pyrimidin-4-yl)amino)-N-((R)-1-fluoropropan-2-yl)-4-isopropyl-2,7-naphthyridine-1-carboxamide], the IC50 is 20 to 30 nM in assay [1] and over 50 nM in assay [2].
On the same counts, the results for `CC(C)c1cnc(C(=O)N[C@@H](C)CF)c2cnc(Nc3ccnc(N4CC[C@@H](O)[C@@](C)(F)C4)n3)cc12` [Example 72, 6-((2-((3S,4R)-3-fluoro-4-hydroxy-3-methylpiperidin-1-yl)pyrimidin-4-yl)amino)-N-((S)-1-fluoropropan-2-yl)-4-isopropyl-2,7-naphthyridine-1-carboxamide] are 15 to 20 nM and over 50 nM.
The matching figures for `CO[C@H]1C[C@@H](NC(=O)c2ncc(C(C)C)c3cc(Nc4ccnc(N5CC[C@@H](O)[C@@](C)(F)C5)n4)ncc23)C1` [Example 73, 6-((2-((3S,4R)-3-fluoro-4-hydroxy-3-methylpiperidin-1-yl)pyrimidin-4-yl)amino)-4-isopropyl-N-((1s,3s)-3-methoxycyclobutyl)-2,7-naphthyridine-1-carboxamide]: under 15 nM and 20 to 30 nM.
Consider `CO[C@H]1C[C@H](NC(=O)c2ncc(C(C)C)c3cc(Nc4ccnc(N5CC[C@@H](O)[C@@](C)(F)C5)n4)ncc23)C1` [Example 74, 6-((2-((3S,4R)-3-fluoro-4-hydroxy-3-methylpiperidin-1-yl)pyrimidin-4-yl)amino)-4-isopropyl-N-((1r,3r)-3-methoxycyclobutyl)-2,7-naphthyridine-1-carboxamide], for which the IC50 in assay [1] is under 15 nM; in assay [2], 20 to 30 nM.
The matching figures for `CC(C)c1cnc(C(=O)NC2CC(F)(F)C2)c2cnc(Nc3ccnc(N4CC[C@@H](O)[C@@](C)(F)C4)n3)cc12` [Example 75, N-(3,3-difluorocyclobutyl)-6-((2-((3S,4R)-3-fluoro-4-hydroxy-3-methylpiperidin-1-yl)pyrimidin-4-yl)amino)-4-isopropyl-2,7-naphthyridine-1-carboxamide]: under 15 nM and 30 to 50 nM.
The matching figures for `CC(C)c1cnc(C(=O)NC2CS(=O)(=O)C2)c2cnc(Nc3ccnc(N4CC[C@@H](O)[C@@](C)(F)C4)n3)cc12` [Example 76, N-(1,1-dioxidothietan-3-yl)-6-((2-((3S,4R)-3-fluoro-4-hydroxy-3-methylpiperidin-1-yl)pyrimidin-4-yl)amino)-4-isopropyl-2,7-naphthyridine-1-carboxamide]: under 15 nM and 30 to 50 nM.
On the same counts, the results for `CC(C)c1cnc(C(=O)NCCN(C)C)c2cnc(Nc3ccnc(N4CC[C@@H](O)[C@@](C)(F)C4)n3)cc12` [Example 77, N-(2-(dimethylamino)ethyl)-6-((2-((3S,4R)-3-fluoro-4-hydroxy-3-methylpiperidin-1-yl)pyrimidin-4-yl)amino)-4-isopropyl-2,7-naphthyridine-1-carboxamide] are under 15 nM and 30 to 50 nM.
As for `CC(C)c1cnc(C(=O)NC2CCOCC2)c2cnc(Nc3ccnc(N4CC[C@@H](O)[C@@](C)(F)C4)n3)cc12` [Example 78, 6-((2-((3S,4R)-3-fluoro-4-hydroxy-3-methylpiperidin-1-yl)pyrimidin-4-yl)amino)-4-isopropyl-N-(tetrahydro-2H-pyran-4-yl)-2,7-naphthyridine-1-carboxamide], the IC50 in assay [1] was in the range of 15 to 20 nM; in assay [2], 30 to 50 nM.
The matching figures for `CC(C)c1cnc(C(=O)N[C@H]2C[C@H](O)C2)c2cnc(Nc3ccnc(N4CC[C@@H](O)[C@@](C)(F)C4)n3)cc12` [Example 79, 6-((2-((3S,4R)-3-fluoro-4-hydroxy-3-methylpiperidin-1-yl)pyrimidin-4-yl)amino)-N-((1r,3r)-3-hydroxycyclobutyl)-4-isopropyl-2,7-naphthyridine-1-carboxamide]: under 15 nM and 30 to 50 nM.
The matching figures for `CC(C)c1cnc(C(=O)NC2CN(CCF)C2)c2cnc(Nc3ccnc(N4CC[C@@H](O)[C@@](C)(F)C4)n3)cc12` [Example 80, 6-((2-((3S,4R)-3-fluoro-4-hydroxy-3-methylpiperidin-1-yl)pyrimidin-4-yl)amino)-N-(1-(2-fluoroethyl)azetidin-3-yl)-4-isopropyl-2,7-naphthyridine-1-carboxamide]: under 15 nM and 20 to 30 nM.

The values above are taken from patent US20240299387A1, “HETEROCYCLIC EGFR INHIBITORS FOR USE IN THE TREATMENT OF CANCER” (Blueprint Medicines Corporation, priority 2021, published 2024).
